pIC50: −log10 of the molar value.
tested on: A2780 cells; assay: Deoxy-glucose uptake assay in A2780 cells (14C 2-deoxy-D-glucose transport); assay type: cell-based; settings: Homo sapiens, 20 min; inhibition of 14C 2-deoxy-D-glucose transport into A2780 cells; 20 min compound incubation; read-out: IC50
Description: 1. Deoxy-Glucose Uptake Assay in A2780 Cells:
For measurement of ^14C 2-deoxy-D-glucose transport into A2780 cells, cells were seeded in 96-well plates (Cytostar-T Plates Perkin Elmer, 70,000 cells/180 μl/well) in medium complete (RPMI1640+Glutamax (Life technologies #61870)) and grown for 48 hours. After 48 h, cells were washed once with 180 μL KRB (Krebs Ringer Bicarbonate) buffer, and stimulated in a dose dependent manner by adding 10 μL of test compound dilution 0-1.1 mM (11 times higher concentration than final) or 10 μL of 1.1 mM Cytochalasin B solution as negative control, to 90 μL KRB buffer and incubated for 20 minutes. After compound stimulation, the transport of ^14C 2-deoxy-D-glucose was started by adding of 50 μL 2-^14C[U] 2-deoxy-D-glucose solution (109.1 μM 2-deoxy-D-glucose cold and 33 μM 2-^14C[U] 2-deoxy-D-glucose 0.1 μCi/well) for 20 minutes. Transport was stopped by adding 50 μL/well 96 μM Cytochalasin B solution. Plates were measured in a 96-well Wallac Microbeta device. The cpm (counts per minute) values were used to determine the % inhibition values for the test compounds within each experiment. In a first step, the mean background value generated by Cytochalasin B (a potent glucose transporter inhibitor) treated cells, was subtracted from the mean values of the treated cells. All mean values were obtained from triplicates. For %-Inhibition results, the mean value of the untreated cells (just KRB) was set as 100%. All other mean values were calculated to this relation. IC50 were obtained by regression analysis of dose response curve with 7 or 14 concentrations, respectively, for each compound.

Structure (SMILES) | pIC50
C#CCCC(=O)Nc1cc(COc2c(Cl)cc(C(=O)N[C@H]3[C@@H](OC)O[C@H](CO)[C@@H](O)[C@@H]3O)c(C)c2Cl)cnc1OC [Example 274] | 4.75
CCn1c(COc2c(Cl)cc(C(=O)O[C@H]3[C@@H](OC)O[C@H](CO)[C@@H](O)[C@@H]3O)cc2OC)nc2ccc(Br)cc21 [Example 213] | 5.82
COC(=O)c1ccc(COc2c(Cl)cc(C(=O)N[C@H]3[C@@H](OC)O[C@H](CO)[C@@H](O)[C@@H]3O)c(C)c2Cl)nc1 [Example 284] | 4.85
CO[C@H]1O[C@H](CO)[C@@H](O)[C@H](O)[C@H]1NC(=O)c1cc(Cl)c(OCc2cccc(NC(=O)CCCCCCC(=O)OC(C)(C)C)c2)c(Cl)c1C [Example 454] | 4.59
CN[C@@H](CC(C)C)C(=O)NCc1cccc(COc2c(Cl)cc(C(=O)O[C@H]3[C@@H](OC)O[C@H](CO)[C@@H](O)[C@@H]3O)c(C)c2Cl)c1 [Example 286] | 5.32
COc1cc(OCc2cccc(CNC(=O)CCC(=O)OC(C)(C)C)c2)c(Cl)cc1C(=O)O[C@@H]1[C@@H](O)[C@@H](OC)O[C@H](CO)[C@H]1O [Example 363] | 4.56
CO[C@@H]1O[C@H](CO)[C@@H](O)[C@H](O)[C@H]1NC(=O)c1cc(Cl)cc(OCc2ccccc2)c1 [Example 334] | 4.51
COc1cc(OCc2coc(-c3ccc(Cl)cc3)n2)c(Cl)cc1C(=O)O[C@H]1[C@@H](OC)O[C@H](CO)[C@@H](O)[C@@H]1O [Example 474] | > 7.00
COc1cc(OCc2ccc(OCC(=O)OC(C)(C)C)cc2)c(Cl)cc1C(=O)O[C@H]1[C@@H](OC)O[C@H](CO)[C@@H](O)[C@@H]1O [Example 395] | 5.82
COc1c(Cl)c(OCc2cccc(CNC(=O)OC(C)(C)C)c2)c(Cl)c(C)c1C(=O)N[C@H]1[C@@H](OC)O[C@H](CO)[C@@H](O)[C@@H]1O [Example 181] | 4.76
COC(=O)[C@H](CCCCNC(=O)COCCOCC(=O)NCc1cccc(COc2cc(OC)c(C(=O)O[C@H]3[C@@H](OC)O[C@H](CO)[C@@H](O)[C@@H]3O)cc2Cl)c1)NC(=O)OC(C)(C)C [Example 399] | 4.69
COC(=O)[C@H](CCCCNC(=O)CCCC(=O)Nc1cccc(COc2c(Cl)cc(C(=O)N[C@H]3[C@@H](OC)O[C@H](CO)[C@@H](O)[C@@H]3O)c(C)c2Cl)c1)NC(=O)OC(C)(C)C [Example 463] | 4.60
COC(=O)/C=C/c1ccc(COc2c(Cl)cc(C(=O)O[C@H]3[C@@H](OC)O[C@H](CO)[C@@H](O)[C@@H]3O)cc2OC)cc1 [Example 299] | 4.34
C#CCCC(=O)Nc1cccc(COc2c(Cl)cc(C(=O)O[C@@H]3[C@@H](O)[C@@H](OC)O[C@H](CO)[C@H]3O)c(C)c2Cl)c1 [Example 205] | 4.56
CO[C@H]1O[C@H](CO)[C@@H](O)[C@H](O)[C@H]1OC(=O)c1cc(Cl)c(OCc2cccc(CNC(=O)[C@@H](N)CC(C)C)c2)c(Cl)c1C [Example 285] | 4.63
CO[C@H]1O[C@H](CO)[C@@H](O)[C@H](O)[C@H]1NC(=O)c1cc(Cl)c(OCc2cccc(OCC(=O)OC(C)(C)C)c2)c(Cl)c1C [Example 307] | 4.62
CO[C@H]1O[C@H](CO)[C@@H](O)[C@H](O)[C@H]1OC(=O)c1cc(Cl)c(OCc2ccc3c(c2)nnn3C)c(Cl)c1C [Example 261] | 6.30
COc1c(C(=O)O[C@H]2[C@@H](OC)O[C@H](CO)[C@@H](O)[C@@H]2O)ccc(OCc2ccccc2)c1Cl [Example 298] | 4.57
CCOC(=O)c1nnsc1COc1c(Cl)cc(C(=O)O[C@H]2[C@@H](OC)O[C@H](CO)[C@@H](O)[C@@H]2O)c(C)c1Cl [Example 282] | 6.52
C#CCCCCCCCn1c(COc2c(Cl)cc(C(=O)N[C@H]3[C@@H](OC)O[C@H](CO)[C@@H](O)[C@@H]3O)c(C)c2Cl)nc2ccccc21 [Example 368] | 5.96
COc1cc(OCc2nnc(-c3ccc(Cl)cc3)s2)c(Cl)cc1C(=O)O[C@H]1[C@@H](OC)O[C@H](CO)[C@@H](O)[C@@H]1O [Example 477] | 5.43
CO[C@@H]1O[C@H](CO)[C@@H](O)[C@H](O)[C@H]1NC(=O)c1cc(Cl)c(OCc2ccccc2)c(Cl)c1C [Example 337] | 4.44
COc1cc(OCc2nc3ccccc3n2CCCCCCCC(=O)O)c(Cl)cc1C(=O)N[C@H]1[C@@H](OC)O[C@H](CO)[C@@H](O)[C@@H]1O (relative stereo) [Example 482] | 5.09
COc1cc(OCc2ccccc2)c(Cl)cc1C(=O)O[C@@H]1[C@@H](O)[C@@H](OC)O[C@H](CO)[C@H]1O [Example 350] | 4.74

Structure (SMILES) | pIC50
COC(=O)c1ccc(COc2c(Cl)cc(C(=O)O[C@H]3[C@@H](OC)O[C@H](CO)[C@@H](O)[C@@H]3O)c(C)c2Cl)cn1 [Example 252] | 5.19
COC(=O)[C@H](CCCCNC(=O)CCCCCCC(=O)Nc1cccc(COc2cc(OC)c(C(=O)O[C@H]3[C@@H](OC)O[C@H](CO)[C@@H](O)[C@@H]3O)cc2Cl)c1)NC(=O)OC(C)(C)C [Example 414] | 6.15
COc1cc(C(=O)N[C@H]2[C@H](OC)O[C@H](CO)[C@@H](O)[C@@H]2O)cc(Cl)c1OCCc1ccccc1 [Example 333] | 4.54
COc1cccc(COc2cc(OC)c(C(=O)O[C@H]3[C@@H](OC)O[C@H](CO)[C@@H](O)[C@@H]3O)cc2Cl)n1 [Example 480] | 5.34
COC(=O)[C@H](CCCCNC(=O)CCCC(=O)NCc1cccc(COc2cc(OC)c(C(=O)O[C@H]3[C@@H](OC)O[C@H](CO)[C@@H](O)[C@@H]3O)cc2Cl)c1)NC(=O)OC(C)(C)C [Example 391] | 4.46
COC(=O)[C@@H](N)CCCCNC(=O)CCCCCn1c(COc2c(Cl)cc(C(=O)N[C@H]3[C@@H](OC)O[C@H](CO)[C@@H](O)[C@@H]3O)c(C)c2Cl)nc2ccccc21 [Example 384] | 4.35
CO[C@H]1O[C@H](CO)[C@@H](O)[C@H](O)[C@H]1NC(=O)c1cc(Cl)c(OCc2cccc(C(=O)OC(C)(C)C)c2)c(Cl)c1C [Example 209] | 5.60
CCOC(=O)c1cccc(COc2c(Cl)cc(C(=O)N[C@H]3[C@@H](OC)O[C@H](CO)[C@@H](O)[C@@H]3O)c(C)c2Cl)n1 [Example 270] | 4.56
COc1cc(C(=O)O[C@H]2[C@@H](OC)O[C@H](CO)[C@@H](O)[C@@H]2O)cc(Cl)c1OCc1cnc(OC)c(Cl)c1 [Example 216] | 5.66
COc1c(C(=O)N[C@H]2[C@H](OC)O[C@H](CO)[C@@H](O)[C@@H]2O)cc(Cl)c(OCc2cccc(CNC(=O)OC(C)(C)C)c2)c1Cl [Example 447] | 4.51
CO[C@@H]1O[C@H](CO)[C@@H](O)[C@H](O)[C@H]1NC(=O)c1cc(Cl)c(OCc2ccccc2)c(Cl)c1 [Example 338] | 4.49
COc1cc(OCc2cccc(NC(=O)OC(C)(C)C)c2)c(Cl)cc1C(=O)N[C@H]1[C@@H](OC)O[C@H](CO)[C@@H](O)[C@@H]1O [Example 359] | 6.40
COC(=O)[C@H](CCCCNC(=O)CCC(=O)NCc1cccc(COc2cc(OC)c(C(=O)N[C@H]3[C@@H](OC)O[C@H](CO)[C@@H](O)[C@@H]3O)cc2Cl)c1)NC(=O)OC(C)(C)C [Example 435] | 4.34
COc1cc(OCc2cccc(CNC(=O)CCC(=O)NCCCCCC(=O)O)c2)c(Cl)cc1C(=O)O[C@H]1[C@@H](OC)O[C@H](CO)[C@@H](O)[C@@H]1O [Example 405] | 4.22
COC(=O)[C@H](CCCCNC(=O)CCCCCCC(=O)Nc1cccc(COc2c(Cl)cc(C(=O)N[C@H]3[C@@H](OC)O[C@H](CO)[C@@H](O)[C@@H]3O)c(C)c2Cl)c1)NC(=O)OC(C)(C)C [Example 464] | 4.36
CO[C@H]1O[C@H](CO)[C@@H](O)[C@H](O)[C@H]1OC(=O)c1cc(Cl)c(OCc2cn3c(C)cccc3n2)c(Cl)c1C [Example 255] | 6.52
COc1cc(OCc2cccc(CNC(=O)OC(C)(C)C)c2)c(Cl)cc1C(=O)N[C@H]1[C@@H](OC)O[C@H](CO)[C@@H](O)[C@@H]1O [Example 357] | 6.05
COc1cc(OCc2ccccc2)cc(C(=O)OC[C@H]2O[C@@H](OC)[C@H](O)[C@@H](O)[C@@H]2O)c1 [Example 136] | 4.12
CO[C@@H]1O[C@H](COC(=O)c2cc(OCc3ccccc3)ccc2C)[C@@H](O)[C@H](O)[C@H]1O [Example 34] | 4.39
CO[C@H]1O[C@H](CO)[C@@H](O)[C@H](O)[C@H]1OC(=O)c1cc(Cl)c(OCc2cccc(C(=O)OC(C)(C)C)c2)c(Cl)c1C [Example 269] | 4.87
COC(=O)c1cnc(COc2c(Cl)cc(C(=O)O[C@H]3[C@@H](OC)O[C@H](CO)[C@@H](O)[C@@H]3O)c(C)c2Cl)cn1 [Example 253] | 5.15
Cc1ccc(OCc2ccccc2)cc1C(=O)OC[C@H]1OC(O)[C@H](O)[C@@H](O)[C@@H]1O (stereo partly shown) [Example 61] | 4.53
CO[C@H]1O[C@H](CO)[C@@H](O)[C@H](O)[C@H]1OC(=O)c1cc(Cl)c(OCCc2ccc(Cl)cc2)c(Cl)c1C [Example 244] | 4.65
COc1cc(OCc2cnc(OC)c(NCC(=O)O)c2)c(Cl)cc1C(=O)N[C@H]1[C@@H](OC)O[C@H](CO)[C@@H](O)[C@@H]1O [Example 483] | 4.44

same assay, conditions: Homo sapiens, A2780, 20 min

Structure (SMILES) | pIC50
COc1cc(C(=O)OC[C@H]2O[C@@H](OCC[Si](C)(C)C)[C@H](O)[C@@H](O)[C@@H]2O)cc(Cl)c1OC(=O)c1ccccc1 [Example 36] | 4.32

From patent publication US20210170033A1, “NOVEL CONJUGATES OF A PHARMACEUTICAL AGENT AND A MOIETY CAPABLE OF BINDING TO A GLUCOSE SENSING PROTEIN” (SANOFI, priority 2017, published 2021)
